Data reported in ChEMBL document CHEMBL1201862, “PubChem BioAssay data set” (2004).
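Interpolation was linear, between the two tested concentrations surrounding the appropriate level; five concentrations were tested over 48 hours in 96-well plates. The concentration for 50% growth inhibition is given as GI50.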 The source made the active and inactive calls. Cut-off read from the data, not from the text of the source: active = GI50 up to about 1.1 µM and inactive = higher.

What was measured:
Assay in all cases: DTP human tumour cell line panel, 48 h
[1] = system: CAKI-1
[2] = system: SK-MEL-28
[3] = system: K562
[4] = system: HL-60
[5] = system: MCF7
[6] = system: MOLT-4
[7] = system: OVCAR-4
[8] = system: Hs-578T
[9] = system: A498
[10] = system: HCC 2998
[11] = system: OVCAR-5
[12] = system: BT-549
[13] = system: 786-0
[14] = system: UO-31
[15] = system: IGROV-1
[16] = system: SF-539
[17] = system: RPMI-8226
[18] = system: RXF 393
[19] = system: COLO 205
[20] = system: SK-MEL-2

| SMILES | GI50 [1] | GI50 [2] | GI50 [3] | GI50 [4] | GI50 [5] | GI50 [6] | GI50 [7] | GI50 [8] | GI50 [9] | GI50 [10] | GI50 [11] | GI50 [12] | GI50 [13] | GI50 [14] | GI50 [15] | GI50 [16] | GI50 [17] | GI50 [18] | GI50 [19] | GI50 [20] |
| --- | --- | --- | --- | --- | --- | --- | --- | --- | --- | --- | --- | --- | --- | --- | --- | --- | --- | --- | --- | --- |
| CC1C2=C(O)CC(C)(C)CC2=NC2=C1C(=O)CC(C)(C)C2 (stereo unspecified) | > 100 µM (inactive) | > 100 µM (inactive) | 91.8 µM (inactive) | > 100 µM (inactive) | > 100 µM (inactive) | > 100 µM (inactive) | > 100 µM (inactive) | > 100 µM (inactive) | > 100 µM (inactive) | > 100 µM (inactive) | > 100 µM (inactive) | > 100 µM (inactive) | > 100 µM (inactive) | > 100 µM (inactive) | > 100 µM (inactive) | > 100 µM (inactive) | > 100 µM (inactive) |  |  |  |
| COc1ccc(/C=N/n2c(Cc3ccccc3)n[nH]c2=O)c(OC)c1 | > 51.4 µM (inactive) | > 100 µM (inactive) | > 100 µM (inactive) |  | > 100 µM (inactive) | > 100 µM (inactive) | > 58.6 µM (inactive) | 11.2 µM (inactive) | 44.4 µM (inactive) | > 77.4 µM (inactive) | 49.1 µM (inactive) | 8.2 µM (inactive) | 31 µM (inactive) | > 42.8 µM (inactive) | 28.8 µM (inactive) | 28.8 µM (inactive) | > 100 µM (inactive) | 9.98 µM (inactive) | > 31.6 µM (inactive) | > 59.8 µM (inactive) |
| COC1OC(=O)C(OC)C(OC)C1OC (stereo unspecified) | > 100 µM (inactive) | > 100 µM (inactive) | > 100 µM (inactive) | > 100 µM (inactive) | > 100 µM (inactive) | > 100 µM (inactive) | > 100 µM (inactive) | > 100 µM (inactive) | > 100 µM (inactive) | > 100 µM (inactive) | > 100 µM (inactive) | 40.5 µM (inactive) | > 100 µM (inactive) | > 100 µM (inactive) | > 100 µM (inactive) | > 100 µM (inactive) | > 100 µM (inactive) |  | > 100 µM (inactive) | > 100 µM (inactive) |
| Cc1cccc2c(N)c3cccc(C(=O)NCC[N+](C)(C)Cc4ccc([N+](=O)[O-])s4)c3nc12 | 2.37 µM (inactive) | 33 µM (inactive) | 2.88 µM (inactive) |  | 2.23 µM (inactive) | 0.472 µM (active) | 8.15 µM (inactive) | 8.51 µM (inactive) | 4.65 µM (inactive) | 11.1 µM (inactive) | 11.9 µM (inactive) | 33.5 µM (inactive) | 1.98 µM (inactive) | 11.4 µM (inactive) | 2.85 µM (inactive) | 4.93 µM (inactive) | 2.62 µM (inactive) | 8.36 µM (inactive) | 4.9 µM (inactive) | 41 µM (inactive) |
| O=C(O)Cc1ccc(Oc2nc3ccccc3nc2C(=O)O)cc1 | 96.8 µM (inactive) | > 100 µM (inactive) | 0.0849 µM (active) | 0.0305 µM (active) | > 100 µM (inactive) |  | > 100 µM (inactive) | > 100 µM (inactive) | > 100 µM (inactive) | > 100 µM (inactive) | > 100 µM (inactive) | > 100 µM (inactive) | > 100 µM (inactive) | > 100 µM (inactive) | > 100 µM (inactive) | > 100 µM (inactive) | > 100 µM (inactive) |  | > 100 µM (inactive) | > 100 µM (inactive) |
| O=C(NCCNCCO)N/N=C/c1ccc([N+](=O)[O-])cc1 | > 100 µM (inactive) | > 100 µM (inactive) | > 100 µM (inactive) | > 100 µM (inactive) | 48.9 µM (inactive) | > 100 µM (inactive) |  | 57.1 µM (inactive) | 47.4 µM (inactive) | > 100 µM (inactive) | > 100 µM (inactive) | > 100 µM (inactive) | > 100 µM (inactive) | > 100 µM (inactive) | > 100 µM (inactive) | > 100 µM (inactive) |  |  | > 100 µM (inactive) | 49.8 µM (inactive) |
| CCn1c(-c2ccc(/N=N/Nc3ccc(-c4n[nH]c(=S)n4CC)cc3)cc2)n[nH]c1=S | 2.7 µM (inactive) | 4.18 µM (inactive) | 2.67 µM (inactive) | 2.93 µM (inactive) | 3.33 µM (inactive) | 2.17 µM (inactive) | 1.97 µM (inactive) | 3.15 µM (inactive) | 3.3 µM (inactive) |  |  | 1.66 µM (inactive) | 4.24 µM (inactive) | 2.33 µM (inactive) | 3.09 µM (inactive) |  | 1.92 µM (inactive) | 3.43 µM (inactive) | 2.69 µM (inactive) | 1.68 µM (inactive) |
| N=C(NCc1ccccc1)N/N=C\c1ccnc2ccccc12 |  | 12 µM (inactive) | 4.31 µM (inactive) | 14.3 µM (inactive) | 11.7 µM (inactive) | 12.6 µM (inactive) | 11.7 µM (inactive) | 18.8 µM (inactive) | 12.5 µM (inactive) | 2.1 µM (inactive) | 13.4 µM (inactive) | 4.56 µM (inactive) | 13.7 µM (inactive) | 10.4 µM (inactive) |  | 15.7 µM (inactive) | 1.29 µM (inactive) |  | 1.71 µM (inactive) | 9.73 µM (inactive) |
| CC1(C)CC(=O)C(CC(C(=O)C(=O)Nc2cc(C(F)(F)F)ccc2Cl)C(=O)c2ccco2)C(=O)C1 (stereo unspecified) | > 100 µM (inactive) | > 100 µM (inactive) | > 100 µM (inactive) | > 100 µM (inactive) | > 100 µM (inactive) | > 100 µM (inactive) | > 100 µM (inactive) | > 100 µM (inactive) | 46.9 µM (inactive) | > 100 µM (inactive) | > 100 µM (inactive) | > 100 µM (inactive) | > 100 µM (inactive) | > 100 µM (inactive) | > 100 µM (inactive) | > 100 µM (inactive) | > 100 µM (inactive) |  | > 100 µM (inactive) | > 100 µM (inactive) |
| CC(=O)c1cc(C)n2c1CS[C@@H]2c1ccccc1 | 70.5 µM (inactive) | > 100 µM (inactive) | 31.6 µM (inactive) | 34 µM (inactive) | 35.9 µM (inactive) | 25.2 µM (inactive) | 59.7 µM (inactive) | > 100 µM (inactive) | > 100 µM (inactive) |  | > 100 µM (inactive) | 37.2 µM (inactive) | 19.7 µM (inactive) | 64.3 µM (inactive) | 32.7 µM (inactive) |  | 7.85 µM (inactive) | 31.5 µM (inactive) | 12.2 µM (inactive) | 98.9 µM (inactive) |
| CC(C)(C)OC(=O)CN1CCNCCN(CC(=O)OC(C)(C)C)CC1 | > 100 µM (inactive) |  | 54.5 µM (inactive) | 19.2 µM (inactive) | > 100 µM (inactive) | > 100 µM (inactive) | > 100 µM (inactive) | > 100 µM (inactive) | > 100 µM (inactive) | 40.7 µM (inactive) | > 100 µM (inactive) | > 100 µM (inactive) | > 100 µM (inactive) | > 100 µM (inactive) | > 100 µM (inactive) | > 100 µM (inactive) | > 100 µM (inactive) |  | > 100 µM (inactive) | > 100 µM (inactive) |
| O=C1NC(N2CCCC(CO)C2)=N/C1=C\c1ccccc1 (stereo unspecified) | > 100 µM (inactive) | > 100 µM (inactive) |  | > 100 µM (inactive) | > 100 µM (inactive) | > 100 µM (inactive) | > 100 µM (inactive) | > 100 µM (inactive) |  | > 100 µM (inactive) | > 100 µM (inactive) | > 100 µM (inactive) | > 100 µM (inactive) | > 100 µM (inactive) | > 100 µM (inactive) | > 100 µM (inactive) | > 100 µM (inactive) | > 100 µM (inactive) | > 100 µM (inactive) | > 100 µM (inactive) |
| CCOC(=O)C(C)NC(=O)C(C)NC(=O)C(C)NC(=O)C(C)NC(=O)C(C)NC(=O)OCc1ccccc1 (stereo unspecified) | > 100 µM (inactive) | > 100 µM (inactive) | > 100 µM (inactive) | > 100 µM (inactive) | > 100 µM (inactive) | > 100 µM (inactive) | > 100 µM (inactive) | > 100 µM (inactive) |  | > 100 µM (inactive) | > 100 µM (inactive) | > 100 µM (inactive) | > 100 µM (inactive) | > 100 µM (inactive) | > 100 µM (inactive) | > 100 µM (inactive) | > 100 µM (inactive) | > 100 µM (inactive) | > 100 µM (inactive) | > 100 µM (inactive) |
| Cc1cc(C)c(C#N)c(SC(=S)NC(=O)c2ccccc2)n1 | > 100 µM (inactive) | > 100 µM (inactive) | > 100 µM (inactive) |  | > 100 µM (inactive) | > 100 µM (inactive) | > 100 µM (inactive) | > 100 µM (inactive) | > 100 µM (inactive) | > 100 µM (inactive) | > 100 µM (inactive) | > 100 µM (inactive) | > 100 µM (inactive) | > 100 µM (inactive) | > 100 µM (inactive) | > 100 µM (inactive) | > 100 µM (inactive) | 3.95 µM (inactive) | > 100 µM (inactive) | > 100 µM (inactive) |
| O=C1c2scc(-c3ccc(F)cc3)c2-n2cccc21 | 10.3 µM (inactive) | 29.2 µM (inactive) |  |  | 21.2 µM (inactive) | 27.9 µM (inactive) | 39.4 µM (inactive) | 20.3 µM (inactive) | 1.47 µM (inactive) | 23.5 µM (inactive) | > 100 µM (inactive) | 13.6 µM (inactive) | 15.7 µM (inactive) | 8.99 µM (inactive) | 18.3 µM (inactive) |  | 24.5 µM (inactive) | 26.1 µM (inactive) | 44.9 µM (inactive) | 35.2 µM (inactive) |
